The NIST ThermoML archive (doi:10.1021/je400184t)

Assay: excess molar enthalpy (molar enthalpy of mixing); xn = mol fraction of the nth substance listed
Settings: 298.15 K, 101 kPa, Liquid, Calvet calorimetry

Cc1ccccc1 [toluene] + CCCCCCC
Settings | excess molar enthalpy [kJ/mol]
x2 = 0.00901 | 0.023
x2 = 0.02172 | 0.057
x2 = 0.04198 | 0.106
x2 = 0.06142 | 0.15
x2 = 0.08009 | 0.191
x2 = 0.09803 | 0.226
x2 = 0.1153 | 0.26
x2 = 0.1319 | 0.289
x2 = 0.1479 | 0.317
x2 = 0.1633 | 0.341
x2 = 0.1782 | 0.364
x2 = 0.1925 | 0.384
x2 = 0.2064 | 0.402
x2 = 0.2198 | 0.418
x2 = 0.2327 | 0.433
x2 = 0.2452 | 0.448
x2 = 0.2574 | 0.461
x2 = 0.2691 | 0.472
x2 = 0.2805 | 0.483
x2 = 0.2915 | 0.492
x2 = 0.3022 | 0.501
x2 = 0.3125 | 0.508
x2 = 0.3226 | 0.516
x2 = 0.3324 | 0.522
x2 = 0.3419 | 0.527
x2 = 0.3511 | 0.532
x2 = 0.3601 | 0.536
x2 = 0.3688 | 0.54
x2 = 0.3773 | 0.544
x2 = 0.3856 | 0.547
x2 = 0.3883 | 0.548
x2 = 0.3909 | 0.548
x2 = 0.3935 | 0.549
x2 = 0.3961 | 0.55
x2 = 0.3987 | 0.551
x2 = 0.4012 | 0.551
x2 = 0.4038 | 0.552
x2 = 0.4063 | 0.552
x2 = 0.4088 | 0.553
x2 = 0.4112 | 0.554
x2 = 0.4137 | 0.554
x2 = 0.4161 | 0.554
x2 = 0.4185 | 0.555
x2 = 0.4209 | 0.555
x2 = 0.4232 | 0.556
x2 = 0.4256 | 0.556
x2 = 0.4279 | 0.556
x2 = 0.4302 | 0.557
x2 = 0.4325 | 0.557
x2 = 0.4348 | 0.557
x2 = 0.4382 | 0.557
x2 = 0.4415 | 0.558
x2 = 0.4449 | 0.558
x2 = 0.4481 | 0.558
x2 = 0.4514 | 0.558
x2 = 0.4546 | 0.558
x2 = 0.4578 | 0.558
x2 = 0.4609 | 0.558
x2 = 0.464 | 0.558
x2 = 0.4671 | 0.558
x2 = 0.4701 | 0.557
x2 = 0.4731 | 0.557
x2 = 0.476 | 0.557
x2 = 0.479 | 0.557
x2 = 0.4819 | 0.556
x2 = 0.4847 | 0.556
x2 = 0.4875 | 0.556
x2 = 0.4903 | 0.555
x2 = 0.4931 | 0.555
x2 = 0.4959 | 0.554
x2 = 0.4995 | 0.553
x2 = 0.503 | 0.553
x2 = 0.5066 | 0.552
x2 = 0.51 | 0.552
x2 = 0.5134 | 0.551
x2 = 0.5168 | 0.55
x2 = 0.5202 | 0.549
x2 = 0.5234 | 0.548
x2 = 0.5267 | 0.547
x2 = 0.5299 | 0.546
x2 = 0.533 | 0.545
x2 = 0.5361 | 0.544
x2 = 0.5392 | 0.543
x2 = 0.5422 | 0.542
x2 = 0.5452 | 0.541
x2 = 0.5482 | 0.54
x2 = 0.5511 | 0.539
x2 = 0.5539 | 0.538
x2 = 0.5568 | 0.537
x2 = 0.5589 | 0.536
x2 = 0.5609 | 0.535
x2 = 0.563 | 0.534
x2 = 0.565 | 0.533
x2 = 0.5671 | 0.532
x2 = 0.5691 | 0.531
x2 = 0.571 | 0.53
x2 = 0.573 | 0.529
x2 = 0.5749 | 0.528
x2 = 0.5769 | 0.527
x2 = 0.5788 | 0.527
x2 = 0.5807 | 0.526
x2 = 0.5826 | 0.525
x2 = 0.5844 | 0.524
x2 = 0.5863 | 0.523
x2 = 0.5881 | 0.522
x2 = 0.5899 | 0.521
x2 = 0.5917 | 0.52
x2 = 0.5935 | 0.519
x2 = 0.5952 | 0.518
x2 = 0.597 | 0.517
x2 = 0.5987 | 0.516
x2 = 0.6004 | 0.515
x2 = 0.6021 | 0.514
x2 = 0.6038 | 0.513
x2 = 0.6055 | 0.512
x2 = 0.6071 | 0.511
x2 = 0.6088 | 0.51
x2 = 0.6148 | 0.507
x2 = 0.6209 | 0.502
x2 = 0.6271 | 0.498
x2 = 0.6335 | 0.493
x2 = 0.64 | 0.488
x2 = 0.6466 | 0.484
x2 = 0.6534 | 0.478
x2 = 0.6603 | 0.473
x2 = 0.6673 | 0.467
x2 = 0.6745 | 0.461
x2 = 0.6819 | 0.454
x2 = 0.6894 | 0.447
x2 = 0.6971 | 0.44
x2 = 0.705 | 0.433
x2 = 0.713 | 0.424
x2 = 0.7212 | 0.416
x2 = 0.7297 | 0.408
x2 = 0.7383 | 0.398
x2 = 0.7471 | 0.388
x2 = 0.7562 | 0.378
x2 = 0.7623 | 0.371
x2 = 0.7685 | 0.364
x2 = 0.7748 | 0.356
x2 = 0.7812 | 0.348
x2 = 0.7877 | 0.34
x2 = 0.7943 | 0.33
x2 = 0.801 | 0.322
x2 = 0.8079 | 0.312
x2 = 0.8148 | 0.303
x2 = 0.8219 | 0.294
x2 = 0.8291 | 0.284
x2 = 0.8365 | 0.274
x2 = 0.8439 | 0.263
x2 = 0.8515 | 0.252
x2 = 0.8592 | 0.24
x2 = 0.8671 | 0.228
x2 = 0.8752 | 0.216
x2 = 0.8833 | 0.203
x2 = 0.8917 | 0.189
x2 = 0.9002 | 0.175
x2 = 0.9088 | 0.161
x2 = 0.9176 | 0.147
x2 = 0.9266 | 0.132
x2 = 0.9358 | 0.116
x2 = 0.9434 | 0.103
x2 = 0.9511 | 0.09
x2 = 0.9589 | 0.077
x2 = 0.9668 | 0.063
x2 = 0.9749 | 0.048
x2 = 0.9831 | 0.033
x2 = 0.9915 | 0.016

NCCO [2-aminoethan-1-ol] + c1ccncc1
Settings | excess molar enthalpy [kJ/mol]
x2 = 0.00998 | 0.032
x2 = 0.0187 | 0.06
x2 = 0.02728 | 0.088
x2 = 0.0357 | 0.114
x2 = 0.04398 | 0.14
x2 = 0.05212 | 0.165
x2 = 0.06012 | 0.189
x2 = 0.06798 | 0.213
x2 = 0.07572 | 0.235
x2 = 0.08333 | 0.257
x2 = 0.09081 | 0.279
x2 = 0.09818 | 0.299
x2 = 0.1054 | 0.319
x2 = 0.1125 | 0.338
x2 = 0.1196 | 0.356
x2 = 0.1265 | 0.374
x2 = 0.1333 | 0.389
x2 = 0.14 | 0.404
x2 = 0.1466 | 0.419
x2 = 0.153 | 0.433
x2 = 0.1594 | 0.446
x2 = 0.1657 | 0.459
x2 = 0.1719 | 0.471
x2 = 0.1782 | 0.483
x2 = 0.1845 | 0.495
x2 = 0.1907 | 0.507
x2 = 0.197 | 0.519
x2 = 0.2032 | 0.53
x2 = 0.2095 | 0.541
x2 = 0.2157 | 0.552
x2 = 0.222 | 0.562
x2 = 0.2282 | 0.573
x2 = 0.2345 | 0.583
x2 = 0.2407 | 0.593
x2 = 0.247 | 0.602
x2 = 0.2532 | 0.612
x2 = 0.2595 | 0.621
x2 = 0.2657 | 0.631
x2 = 0.272 | 0.64
x2 = 0.2782 | 0.649
x2 = 0.2845 | 0.657
x2 = 0.2907 | 0.666
x2 = 0.297 | 0.674
x2 = 0.3032 | 0.682
x2 = 0.3095 | 0.69
x2 = 0.3157 | 0.698
x2 = 0.322 | 0.706
x2 = 0.3282 | 0.713
x2 = 0.3345 | 0.721
x2 = 0.3407 | 0.728
x2 = 0.347 | 0.735
x2 = 0.3532 | 0.742
x2 = 0.3595 | 0.749
x2 = 0.3621 | 0.752
x2 = 0.3652 | 0.755
x2 = 0.3684 | 0.758
x2 = 0.3716 | 0.762
x2 = 0.3748 | 0.765
x2 = 0.3781 | 0.768
x2 = 0.3815 | 0.772
x2 = 0.385 | 0.775
x2 = 0.3885 | 0.778
x2 = 0.3921 | 0.781
x2 = 0.3957 | 0.782
x2 = 0.3994 | 0.786
x2 = 0.4032 | 0.79
x2 = 0.407 | 0.794
x2 = 0.4109 | 0.797
x2 = 0.4149 | 0.801
x2 = 0.419 | 0.805
x2 = 0.4232 | 0.809
x2 = 0.4274 | 0.813
x2 = 0.4317 | 0.816
x2 = 0.4361 | 0.82
x2 = 0.4406 | 0.824
x2 = 0.4452 | 0.827
x2 = 0.4499 | 0.831
x2 = 0.4547 | 0.834
x2 = 0.4596 | 0.838
x2 = 0.4646 | 0.841
x2 = 0.4698 | 0.845
x2 = 0.475 | 0.848
x2 = 0.4803 | 0.851
x2 = 0.4858 | 0.855
x2 = 0.4914 | 0.858
x2 = 0.4971 | 0.86
x2 = 0.503 | 0.863
x2 = 0.509 | 0.866
x2 = 0.5151 | 0.868
x2 = 0.5214 | 0.87
x2 = 0.5219 | 0.871
x2 = 0.5284 | 0.873
x2 = 0.535 | 0.875
x2 = 0.5418 | 0.877
x2 = 0.5488 | 0.878
x2 = 0.5559 | 0.88
x2 = 0.5633 | 0.88
x2 = 0.5708 | 0.881
x2 = 0.5786 | 0.881
x2 = 0.5865 | 0.881
x2 = 0.5947 | 0.881
x2 = 0.6031 | 0.88
x2 = 0.6117 | 0.879
x2 = 0.6206 | 0.877
x2 = 0.6298 | 0.874
x2 = 0.6392 | 0.871
x2 = 0.649 | 0.867
x2 = 0.659 | 0.862
x2 = 0.6693 | 0.856
x2 = 0.68 | 0.849
x2 = 0.691 | 0.841
x2 = 0.7024 | 0.832
x2 = 0.7141 | 0.822
x2 = 0.7263 | 0.809
x2 = 0.7389 | 0.796
x2 = 0.7519 | 0.779
x2 = 0.7654 | 0.761
x2 = 0.7793 | 0.739
x2 = 0.7938 | 0.715
x2 = 0.8089 | 0.687
x2 = 0.8245 | 0.656
x2 = 0.8408 | 0.62
x2 = 0.8577 | 0.576
x2 = 0.8753 | 0.529
x2 = 0.8936 | 0.472
x2 = 0.9127 | 0.407
x2 = 0.9327 | 0.331
x2 = 0.9535 | 0.24
x2 = 0.9753 | 0.135
x2 = 0.9981 | 0.005
